Read-outs that look alike come from different tables or passages of the source.
Experiments:
[1] = tested on: Klebsiella pneumoniae MDR ATCC 700603; experiment: Single-dose growth inhibition, Kp; assay type: cell-based
Description: Inhibition of bacterial growth was determined by measuring the absorbance at 600 nm (OD600), using a Tecan M1000 Pro monochromator plate reader. Growth inhibition was calculated for each well, relative to the reference growths determined from a negative control (media only) and positive control (bacteria without inhibitors) incubated in the same plate. A single dose of 32 μg/mL of COE (final concentration) was used for each test.
Percentage growth inhibition of an individual sample was calculated based on growth in a reference well determined from negative controls (media only) and positive controls (bacterial/fungal media without inhibitors). Negative inhibition values indicate that the growth rate (or OD600) is higher compared to the reference growth (bacteria/fungi only, set to 0% inhibition). The growth rates for all bacteria and fungi may vary at −/+10%, which were within the reported normal distribution of bacterial/fungal growth. Any significant variations (or outliers/hits) were identified by the modified Z-Score, and the active compounds were selected by a combination of inhibition values and Z-Score.
A M(i) value of >|2.5| (absolute) would classify the sample as outliers or hits. Active samples were denoted as compounds with inhibition values equal to or above 80% and absolute Z-Score above |2.5| for either replicate (n=2 on different plates). Partial active samples were denoted as compounds with inhibition values from 50% to <80%, or absolute Z-Score below |2.5|.

E. coli K12 = experiment: SEM of COE-treated E. coli K12; assay type: cell-based, Escherichia coli; conditions: 32 μg mL^−1 COE, 2 hrs
Description: E. coli K-12 was grown, collected and washed according to the procedure described above (in the uptake measurements). COE solutions (in PBS) were added to a PBS suspension of E. coli K12 (OD600=1.0) to achieve final COE concentrations of 32 μg/mL. After incubating for 2 hrs at room temperature under shaking (200 rpm), the microbes were immediately fixed with 2.5% glutaraldehyde solution at 4° C. overnight. 10 μL of the fixed bacteria suspension was spotted onto the SEM conducting paste and left to dry in air. The bacteria samples were dehydrated with a series of increasingly concentrated ethanol solution (20%-100%). After drying overnight, the samples were coated with platinum and imaged with FESEM (JEOL JSM-6700F) to characterise the morphology of the samples.
Characterisation of treated E. coli K12 by scanning electron microscopy (SEM) COE-treated cells were characterised by SEM. E. coli K12 ([…]) were treated with 32 μg mL^−1 of each COE. […] This is consistent with the proposal that COE insertion disrupts membrane integrity and this effect is of a greater magnitude for COE-D8.

[2] = tested on: Enterococcus faecalis OG1RF; experiment: MIC by broth microdilution against E. faecalis OG1RF; assay type: cell-based; conditions: BHI
Description: (§1) The respective minimum inhibition concentration (MIC) of each COE molecule was determined using a broth microdilution method. Briefly, COEs were diluted via a 2-fold dilution series in 100 μL of either Muller Hinton Broth (MHB) for E. coli and S. aureus or Brain Heart Infusion Broth (BHI) for E. faecalis in a 96-well plate to achieve the desired final concentration. Subsequently, each well was inoculated with 100 μL of 1×10^6 colony forming units (CFU) mL^−1 of the respective microorganism in MHB for E. coli or BHI for E. faecalis to achieve an inoculum density of 5×10^5 CFU mL^−1. The plates were then incubated at 37° C. with shaking (200 rpm) for 18 hrs. […] The results were obtained in triplicate.
The MIC values of COE-D4, COE-D6 and COE-D8 against the reference strain E. coli K12, pathogenic E. coli UT189, and the Gram positive pathogen Enterococcus faecalis OG1RF were determined using a broth microdilution method as described in the general method above. The MICs for E. coli K12 were determined to be 128, 16, and 4 μg mL^−1 for COE-D4, COE-D6, and COE-D8, respectively (FIG. 5a). […] This is not surprising as these two organisms differ in the capsular polysaccharides that they expressed, which are known to hinder the uptake of antimicrobials and mitigate their potency (M. A. Campos, et al., Infect. Immun. 2004, 72, 7107-7114). […]

[3] = Solubility in PBS / aqueous solubility; assay type: physicochemical
[4] = tested on: Methicillin-resistant Staphylococcus aureus (MRSA BAA-40); experiment: MIC against MRSA BAA-40; assay type: cell-based; conditions: for MIC in comparison with vancomycin: all three strains: E. coli K12, S. aureus 25923, MRSA BAA-40 (FIG. 5b)
Description: as §1
(§2) The antimicrobial effects of COE-D62N and COE-D82N were also tested on the Gram-positive Staphylococcus aureus 25923 and Methicillin-resistant Staphylococcus aureus(MRSA BAA-40), in comparison with vancomycin (FIG. 5b).

MRSA BAA-40 [5] = experiment: Resistance evolution experiment (serial passage); assay type: cell-based, Staphylococcus aureus; conditions: for MIC on MRSA BAA-40 during serial passage: from the 5th day onwards, 17 days; for Tendency to cause resistance in the bacteria: serial passage for 17 days
Description: To evaluate the propensity of COE to induce resistance, a serial passage of MRSA BAA-40 in MHB medium containing 100-fold diluted stationary-phase culture with increasing concentrations of COE was performed.

[6] = tested on: Staphylococcus aureus on reconstituted human epidermis (RHE); experiment: Reconstituted human epidermis skin model inoculated with S. aureus; assay type: cell-based; conditions: 10× the MIC of S. aureus
Description: Reconstituted human epidermis (RHE) was cultured in multiwell plates on polymer membrane inserts (0.5 cm^2 surface area) using immortalized human keratinocytes (250,000 NTERTS) in CnT prime media (from CellnTec) for 48 hours after which they were transferred to CnT 3D prime media for 24 hours before air lifting. The media was changed every 48 hours thereafter and RHE was grown for at least 7 days. After the stratified layers of the RHE were formed, a standardised inoculum of Staphylococcus aureus was added to RHEs (with the exception of the negative control), followed by the addition of 10× the MIC of S. aureaus of antimicrobial COEs.

MRSA BAA-40 [7] = experiment: Time-kill assay; assay type: cell-based, Staphylococcus aureus; conditions: 32 μg/mL; for Reduction of viability of MRSA BAA-40 compared with vancomycin: FIG. 11a
Description: A stationary-phase culture of MRSA BAA-40 was diluted to 2×10^8 CFU/mL in fresh MHB. 500 μL of this suspension was then mixed with another 500 μL of MHB containing twice the desired final concentrations of COEs and vancomycin (32 μg/mL). The tube was incubated at 37° C. with 200 rpm shaking. Aliquots were removed at various time points and were serially diluted in PBS, and plated on MHB plates to enumerate CFU/mL.

[8] = tested on: Staphylococcus aureus 25923; experiment: MIC against S. aureus 25923; assay type: cell-based
Description: as §1, §2

[9] = Aqueous solubility (further tests); assay type: physicochemical; conditions: aqueous medium (not further specified)
[10] = ATCC700603, read-out: Growth inhibition Kp
[11] = aqueous buffer, in PBS, read-out: Solubility in PBS
[12] = ATCC700603, 32 μg/mL single dose, n=2, read-out: Growth inhibition Kp
[13] = PBS (aqueous solubility), read-out: aqueous solubility

| SMILES | inhibition at 32 µg/mL [1, 10] | Morphology of treated E. coli K12 by SEM (E. coli K12) | MIC [2] | solubility [3, 11] | inhibition at 32 µg/mL [1, 12] | MIC in comparison with vancomycin [4] | MIC on MRSA BAA-40 during serial passage (MRSA BAA-40 [5]) | Tendency to cause resistance in the bacteria (MRSA BAA-40 [5]) | Skin structure of infected RHE model after treatment [6] | Time to reduce viability of MRSA close to the minimum (MRSA BAA-40 [7]) | Reduction of viability of MRSA BAA-40 compared with vancomycin (MRSA BAA-40 [7]) | solubility [3, 13] | MIC [8] | MIC ([4]; Staphylococcus aureus) | solubility [9] |
| --- | --- | --- | --- | --- | --- | --- | --- | --- | --- | --- | --- | --- | --- | --- | --- |
| C[N+](C)(C)CCCCCCCCOc1ccc(/C=C/c2ccc(OCCCCCCCC[N+](C)(C)C)cc2)cc1 [COE-D8] | 50 to 80% | pitting and membrane rupture | 4 µg/mL | 65 µg/mL |  |  |  |  |  |  |  |  |  |  |  |
| CN(C)CC[N+](C)(C)CCCCCCCCOc1ccc(/C=C/c2ccc(OCCCCCCCC[N+](C)(C)CCN(C)C)cc2)cc1 [COE-D82N] |  |  |  |  | > 80% | lower MIC than vancomycin | remained relatively constant | low tendency to cause resistance | intact skin structure | ≤ 2 h | much faster than that of vancomycin |  |  |  |  |
| C[N+](C)(C)CCCCOc1ccc(/C=C/c2ccc(OCCCC[N+](C)(C)C)cc2)cc1 [COE-D4] | < 50% | rod-shaped cells with smooth outer surfaces |  | 3100 µg/mL |  |  |  |  |  |  |  |  |  |  |  |
| C[N+](C)(C)CCCCCCOc1ccc(/C=C/c2ccc(OCCCCCC[N+](C)(C)C)cc2)cc1 [COE-D6] | < 50% | pitting and membrane rupture |  | 240 µg/mL |  |  |  |  |  |  |  | 240 µg/mL |  |  |  |
| CN(C)CC[N+](C)(C)CCCCCCOc1ccc(/C=C/c2ccc(OCCCCCC[N+](C)(C)CCN(C)C)cc2)cc1 [COE-D62N] |  |  |  |  | < 50% | lower MIC than vancomycin | remained relatively constant | low tendency to cause resistance | intact skin structure |  | much faster than that of vancomycin | > 4000 µg/mL | 1 µg/mL | 1 µg/mL | > 200 µM |

Source: patent publication US12157713B2, “Conjugated oligoelectrolytes as antimicrobial agents” (Nanyang Technological University, priority 2018, dated 2024)
